Broadly, the CC50 is the concentration giving 50% cytotoxicity. Usually IC50 stands for the concentration that gives 50% inhibition.

In series [1] the test system is T. cruzi. Nature of the series: ATP levels, CellTiter-Glo. The format is cell-based, Trypanosoma cruzi. Particulars: IC90, 24 h, negative control = 100%. The method, then:
(§1) The levels of ATP were measured by using CellTiter-Glo® reagent, and values of luminescence were obtained by the EnSpire Multimode Plate Reader®. Results were processed and represented in Figure 4 as the percentage of ATP relative to the negative control (without treatment) that corresponds with 100% of ATP level.
(§2) The levels of ATP in the wells were measured by using the CellTiter-Glo® Luminescent Cell Viability Assay (Promega, WI, USA). […] These volumes were transferred to a white plate, and 25 μL of kit was added to each well. After 10 min of incubation at room temperature, the luminescence was determined by using the EnSpire Multimode Plate Reader® (PerkinElmer), and the results were expressed as the percentage of production of ATP relative to the negative control (without any treatment). All of the experiments were performed in triplicate in three different days (n = 3).
(In ATP-based viability assays light output follows the ATP content of the culture.)

Series [2] has as its system epimastigotes of T. cruzi. Nature of the series: Chromatin condensation, Hoechst 33342/propidium iodide. Particulars: IC90, 24 h. The format is cell-based, Trypanosoma cruzi.
Series [3] can be described thus: alamarBlue cytotoxicity on murine macrophages. The format is cell-based. Particulars: mouse, J774A.1 macrophages; 24 h of incubation; read-out: Macrophages J744A.1 CC50. On the technique in general: Resazurin is reduced to fluorescent resorufin, in cell work by metabolically active cells.
Series [4] relates to promastigotes of L. amazonensis. Nature of the series: Plasmatic membrane permeability, SYTOX Green. Particulars: IC90, 24 h. The format is cell-based, Leishmania amazonensis.
Series [5] has as its system amastigotes of L. amazonensis. Nature of the series: alamarBlue activity against intracellular amastigotes of L. amazonensis in murine macrophages. Particulars: for IC50: Leishmania amazonensis, Macrophage, 24 h of incubation, intracellular form in murine macrophages; for Amastigotes L. amazonensis SI: selectivity index CC50/IC50. The format is cell-based, Leishmania amazonensis. The method, then:
(§3) For the anti-leishmanicidal experiments, promastigotes and amastigotes of Leishmania amazonensis strain (MHOM/BR/77/LTB0016) and promastigotes of Leishmania donovani strain (MHOM/IN/90/GE1F8R) were used, and they were maintained in RPMI 1640 medium (Gibco, Waltham, MA, USA) at 26 °C. For the trypanocidal experiments, epimastigotes of Trypanosoma cruzi (Y strain) were used, and they were maintained in liver infusion tryptose (LIT) medium supplemented with 10% of fetal bovine serum (FBS) at 26 °C. Murine macrophages J774A.1 (ATCC #TIB-67), maintained in DMEM medium at 37 °C with 5% CO2, were used for the cytotoxic activity assays.
To determinate the IC50 against the intracellular form of the parasite amastigotes of L. amazonensis, the alamarBlue colorimetric method was also used. In a 96-well plate, murine macrophages were added in a concentration of 10^4 cells per well. After adherence of the cells, 10^5 promastigotes of the parasite were added to reach 1:10 cell:parasites per well. After 24 h of incubation at 37 °C with 5% of CO2 for the internalization of the parasite, the wells were washed, and serial dilutions of the compounds were added. After an incubation of 24 h with the compounds, the wells were washed, and the macrophages were broken with a solution of SDS (Sodium dodecyl sulfate) at 0.05% for 30 s. After adding fresh RPMI medium, we added 10% of alamarBlue, and the plates were incubated at 26 °C for 96 h. Finally, the fluorescence was measured by using the EnSpire Multimode Plate Reader® (PerkinElmer, Thermo Fisher Scientific, Madrid, Spain), and the IC50 of each compound was calculated.

Series [6] relates to epimastigotes of Trypanosoma cruzi (Y strain). Nature of the series: alamarBlue activity against epimastigotes of T. cruzi. Particulars: for IC50: Trypanosoma cruzi, 72 h of incubation, mean with standard deviation; for Epimastigotes T. cruzi SI: selectivity index CC50/IC50. The format is cell-based. The method, then:
as §3
(§4) For the activity against extracellular parasites of kinetoplastid, Leishmania and Trypanosoma parasites, in a 96-well plate, serial dilutions of the compounds were added with dilutions of 10^5 parasites per well and a 10% of alamarBlue Cell Viability Reagent® (Thermo Fisher Scientific, Waltham, MA, USA). After 72 h of incubation at 26 °C, the fluorescence of each well was measured in the EnSpire Multimode Plate Reader® (PerkinElmer, Thermo Fisher Scientific, Madrid, Spain). The inhibitory concentration 50 (IC50) was calculated by nonlinear regression analysis.

For series [7], the system named is L. amazonensis. Kind of series: ATP levels, CellTiter-Glo. The format is cell-based, Leishmania amazonensis. Particulars: IC90, 24 h, negative control = 100%. On the procedure: as §1, §2
Series [8] concerns epimastigotes of T. cruzi. Nature of the series: Reactive oxygen species detection, CellROX Deep Red. Particulars: IC90, 24 h. The format is cell-based, Trypanosoma cruzi.
Series [9] deals with promastigotes of Leishmania amazonensis strain (MHOM/BR/77/LTB0016). Kind of series: alamarBlue activity against promastigotes of L. amazonensis. The format is cell-based. Particulars: for IC50: Leishmania amazonensis, 72 h of incubation, mean with standard deviation; for Promastigotes L. amazonensis SI: selectivity index CC50/IC50. On the procedure:
as §3, §4

In series [10] the test system is promastigotes of L. amazonensis. Nature of the series: Chromatin condensation, Hoechst 33342/propidium iodide. The format is cell-based, Leishmania amazonensis. Particulars: IC90, 24 h.
Series [11] relates to promastigotes of Leishmania donovani strain (MHOM/IN/90/GE1F8R). Nature of the series: alamarBlue activity against promastigotes of L. donovani. The format is cell-based. Particulars: for IC50: Leishmania donovani, 72 h of incubation, mean with standard deviation; for Promastigotes L. donovani SI: selectivity index CC50/IC50 (macrophages J744A.1 vs parasite). On the procedure:
as §3, §4

For series [12], the system named is epimastigotes of T. cruzi.
Series [13] relates to promastigotes of L. amazonensis. Kind of series: Reactive oxygen species detection, CellROX Deep Red. The format is cell-based, Leishmania amazonensis. Particulars: IC90, 24 h.
Series [14] deals with L. amazonensis. Nature of the series: Mitochondrial membrane potential, JC-1. The format is cell-based, Leishmania amazonensis. Particulars: IC90, 24 h. On the procedure:
The alterations on the mitochondrial membrane potential were measured by using JC-1® reagent. The results were expressed in percentage of variations in the mitochondrial membrane potential relative to the untreated control.
The alterations in the mitochondrial membrane potential were determined by using the JC-1 Mitochondrial Membrane Potential Assay Kit® (Cayman Chemical, Ann Arbor, MI, USA). […] Finally, using the EnSpire Multimode Plate Reader® (PerkinElmer, Thermo Fisher Scientific, Madrid, Spain), we measured the fluorescence, and the results were expressed in the percentage relative to the negative control (without any treatment), using the ratio 595 nm/535 nm (aggregates/monomers). All of the experiments were performed in triplicate in three different days (n = 3).

For series [15], the system named is promastigotes of L. donovani. Kind of series: Chromatin condensation, Hoechst 33342/propidium iodide. The format is cell-based, Leishmania donovani. Particulars: IC90, 24 h.
In series [16] the test system is promastigotes of L. donovani.
Series [17] has as its system T. cruzi. On the set-up: method as in PMID 17950283. Particulars: read-out: IC50 against T. cruzi; cited from earlier work.
For series [18], the system named is T. brucei rhodes. On the set-up: method as in PMID 19513006. Particulars: cited from earlier work.

With `C=C1CCC2C(=C)C(=O)OC2C=C(C)CCC1=O` (centres unmarked) [Anhydroartemorin (2), anhydroartemorin], the “Percentage of ATP relative to the negative control” value turned out to be 27.17% in series [1] and 28.76% in [7]. Besides, the Chromatin condensation entry is recorded as “caused chromatin condensation” in [2] and “induced chromatin condensation” in series [10]. For the same compound, the CC50 at 24 h in series [3] worked out at 179 ± 2.27 µM. The Plasmatic membrane permeability result in [4] and in series [12] was “increase on the plasmatic membrane permeability” in each case. Further, the IC50 was 7.44 ± 0.45 µM in series [5], 13 ± 4.95 µM in series [6], 25.6 ± 5.88 µM in series [9] and > 102 µM in series [11]. The “Amastigotes L. amazonensis SI” value in series [5] is 24.06. In series [6], the “Epimastigotes T. cruzi SI” value came out at 13.76. The “Reactive oxygen species detection” value in [8] is listed as “intense fluorescence due to ROS detection”. For the same compound, the “Promastigotes L. amazonensis SI” value in series [9] amounted to 7.00. In series [11], the “Promastigotes L. donovani SI” value is <1.76.

Consider `C=C1C(=O)O[C@@H]2[C@@H]3[C@@](C)(CC[C@@H]12)[C@H](O)CC[C@]3(C)O` [4b-Hydroxyarbusculin A (11), 4β-hydroxyarbusculin A], for which, in [13], the “Reactive oxygen species detection” value is given as “presence of red fluorescence”. In addition, the CC50 at 24 h in series [3] is > 403 µM. In addition, the Plasmatic membrane permeability entry in series [4] is reported as “increase on the plasmatic membrane permeability”. The IC50 in [5] is 15.8 ± 1.01 µM; in series [6] it was > 201 µM; in [9] it was 76.4 ± 5.72 µM; in series [11], > 201 µM. Further, the “Amastigotes L. amazonensis SI” value is reported as >25.47 in series [5] and > 25.47 in [5] (listed as 4β-hydroxyarbusculin A (11)). The “Promastigotes L. amazonensis SI” value in series [9] is >5.27. Further, in [14], the “Mitochondrial membrane potential relative to the negative control” value worked out at 40.99%. In addition, the Chromatin condensation entry in series [10] is recorded as “induced chromatin condensation”.

On to `C=C1C(=O)OC2C=C(C)CCC=C(COC(C)=O)CCC12` (mixture of isomers) [cis,trans-costunolide-14-acetate (3), cis,trans-costunolide-14-acetate], for which the Chromatin condensation entry in series [15] was “blue and red fluorescence was produced”. In series [16], the Plasmatic membrane permeability entry is on record as “increase on the plasmatic membrane permeability”. In addition, the CC50 at 24 h in series [3] worked out at 51 ± 7.54 µM. Besides, in series [5], half-maximal inhibition (IC50) was put at 24.6 ± 3.64 µM and the “Amastigotes L. amazonensis SI” value came to 2.08. Moreover, in [6], the midpoint of inhibition, the IC50, lay at 8.88 ± 0.91 µM and the “Epimastigotes T. cruzi SI” value was 5.75. Besides, in series [9], half-maximal inhibition (IC50) required 8.62 ± 1 µM and the “Promastigotes L. amazonensis SI” value was 5.92. Also, in series [11], the IC50 is 5.41 ± 1.28 µM and the “Promastigotes L. donovani SI” value was determined as 9.43.

For the compound `C=C1C(=O)O[C@H]2[C@H]1CC/C(C)=C/CC[C@@]1(C)O[C@@H]21` [Parthenolide (15), parthenolide], the IC50 in [17] was 2.01 µM.

In the case of `C=C1CCC2C(=C)C(=O)OC2C=C(C)CCC1O` (centres unmarked) [Artemorin (1), artemorin], in [3], the CC50 at 24 h is > 403 µM. Further, the IC50 is 40.1 ± 3.44 µM in series [5], 81 ± 12 µM in [6], 40.9 ± 2.82 µM in series [9] and > 201 µM in [11]. Besides, the “Amastigotes L. amazonensis SI” value in series [5] is given as >10.04. The “Epimastigotes T. cruzi SI” value in series [6] is recorded as >4.97. Also, the “Promastigotes L. amazonensis SI” value in [9] is on record as >9.85.

As for `CCCCCCCCCCCCCCCCOP(=O)([O-])OCC[N+](C)(C)C` [Miltefosine, reference compound], the CC50 at 24 h in series [3] was 72.2 ± 3.06 µM. Besides, the “Amastigotes L. amazonensis SI” value in series [5] is 23.17. For the same compound, the “Promastigotes L. amazonensis SI” value in [9] amounted to 11.14. For the same compound, the “Promastigotes L. donovani SI” value in series [11] was 21.74.

Consider `C=C1C(=O)OC2C1CCC1(C)C(O)CCC(=C)C21` (centres unmarked) [compound 19], for which the “selectivity against T. brucei rhodes” value in series [18] was “high selectivity”.
